According to article PMC11056991, “Promising Anticancer Prodrugs Based on Pt(IV) Complexes with Bis-organosilane Ligands in Axial Positions” (Journal of Medicinal Chemistry, 2024):
Read-outs that look alike come from different tables or passages of the source.

Tests used:
[1] = 195Pt NMR reduction kinetics with ascorbic acid; type: physicochemical; details: AsA 4:1 excess, DMSO/D2O (4:1), 37 °C, 2, 6, 24 h
Experimental: (§1) AsA presents an intracellular concentration of 1 mM, whereas the GSH concentration is 2 mM.[38] This reactivity was monitored by ^195Pt NMR at different times. Thus, by analyzing the different regions where the signals of Pt(II)/Pt(IV) species appear, it is possible to identify and assign the different compounds formed during the reaction. In most cases, the regions where the Pt(II) and Pt(IV) signals appear are separated by more than 3000 ppm.[33]
We first studied the reduction of the complexes against AsA, monitoring the reaction in both the Pt(IV) and Pt(II) region at 2, 6, and 24 h. In both cases, we used a mixture of DMSO/D2O (4:1) to reach the solubilization of the complexes and the AsA. In the Pt(IV)-biSi-1 reduction experiment, during the first hour, only the signal at 1210 ppm appeared in the Pt(IV) region (Figure S13A), which corresponds to the original complex, and no signal was detected in the Pt(II) region.
Each solution was then slowly added to 100 μL of a solution of the corresponding reducing agent (AsA or GSH in an excess of 4:1 against each complex) in D2O at 37 °C. After that, 100 μL of DMSO-d6 was added carefully to each mixture, reaching a final concentration of […] (DMSO-d6/D2O). All of these mixtures were performed using a thermoshaker. Each sample was monitored by ^195Pt NMR at 2, 6, and 24 h.

[2] = test system: histone gH2Ax foci at double-strand DNA breaks in HCT 116 cells; assay: Immunofluorescence of histone gH2Ax DNA damage foci; type: cell-based, human; details: HCT 116, 0.5 μM, 48 h
Experimental: Confocal imaging of the DNA damage response was followed by immunofluorescence of histone gH2Ax foci at double-strand DNA breaks (DSB) (Figure 4A). […] However, none of the Pt(IV) prodrugs were able to increase p53 levels even at concentrations higher than those needed to reduce cell viability.
Cells in coverslips were washed three times and fixed with 4% paraformaldehyde in PBS (pH 7.4) for 10 min, washed again, permeabilized (PBS [pH7.4], 0.5% Triton X-100, 0.2% BSA) for 5 min, blocked (PBS [pH7,4], 0,05% Triton X-100, 5% BSA) for 1 h at room temperature, and incubated with primary antibody overnight at 4 °C. After three washes (5 min), cells were incubated with secondary antibody for 1 h at room temperature, and the nuclei were stained with 4,6-diamidino-2-phenylindole (DAPI, 1:10,000, Invitrogen) for 10 min. Slides were mounted, and images were acquired using an FV3000 confocal microscope (Olympus) with a 63× objective. The antibodies rabbit monoclonal anti-Histone H2A.X (D17A3) (dilution 1:400) and mouse monoclonal anti-Lamin A/C (4C11) (dilution 1:400) were purchased from Cell Signaling (Danvers, Massachusetts, USA). Donkey Anti-Rabbit-Alexa Fluor 488 (dilution 1:500) and Donkey Anti-Mouse-Alexa Fluor 594 (dilution 1:500) were purchased from Invitrogen (Barcelona, Spain).

[3] = 195Pt NMR reduction kinetics with glutathione; type: physicochemical; details: GSH 4:1 excess, DMSO/D2O (4:1), 37 °C, 2, 6, 24 h
Experimental: as §1
The reactivity of both complexes toward the reducing agent GSH was also studied using the DMSO/D2O (4:1) mixture. […] In the Pt(II) region, two signals appeared after 24 h at −2728 and −3405 ppm (Figure 2G). The first value is consistent with the cis-PtN2SX fraction,[41],[42] meaning that this species, once reduced to its Pt(II) homologue, coordinates with GSH by displacing a chloride ligand. The second signal corresponds to another Pt(II) moiety with more than one ligand containing sulfur atoms. […]
Each solution was then slowly added to 100 μL of a solution of the corresponding reducing agent (AsA or GSH in an excess of 4:1 against each complex) in D2O at 37 °C. […] Each sample was monitored by ^195Pt NMR at 2, 6, and 24 h.

[4] = test system: HCT 116 colon carcinoma subcutaneous tumors; assay: Subcutaneous HCT 116 tumor model in nude mice; type: in vivo, athymic nude Foxn1nu mice
From the text: Tumor growth was monitored until tumors in the control group reached the ethically allowed size. […] On the other hand, many types of cancer cause a general increase in lactate dehydrogenase (LDH), and it is considered a nonspecific tumor marker.[57]
To establish the subcutaneous tumor, 2 × 10^6 HCT 116 colon carcinoma cells were resuspended 1:1 in culture media and Matrigel (BD) and injected subcutaneously. Six to eight week old female athymic nude Foxn1nu mice (Harlan Iberica) were used for each point. […] Two therapeutic approaches were compared: acute and chronic (see diagram in Figure 5). Acute treatment was performed (three injections of 10 mg/kg); chronic treatment relied on injections of 1 mg/kg every 3–4 days. […] Tumor growth was monitored by personnel unaware of the group distribution. Experiments were finalized when control animals achieved the maximum tumor size approved by the Ethical Committee. Animals were sacrificed by euthanasia by CO2 inhalation. Selected organs were collected from each animal for histopathological analysis. Samples were fixed in 4% paraformaldehyde for 2 h followed by cold 70% ethanol. Plasma serum was collected to determine hepatic and renal toxicity of treatments using a SPIN200E automatic bioanalyzer (Spinreact).

[5] = Stability in DMEM by 195Pt NMR; type: physicochemical; details: DMSO-d6/DMEM 1:4, 37 °C, 0, 24, 48, 120 h
From the text: We then decided to evaluate the stability of the two Pt(IV) complexes in the medium (DMEM) used to carry out the in vitro experiments, monitoring their kinetics by ^195Pt NMR at different times to evaluate the possible species formed over time. DMEM is supplemented with proteins and other molecules essential for cell growth (Experimental Section). Thus, similar to the reduction assays, we analyzed the Pt(II)/Pt(IV) region where the expected species appear. […] Both Pt(IV)/Pt(II) signals disappeared after 48 h, most likely again because of the binding of the complex to the proteins.
To each solution was then slowly and carefully added 300 μL of DMEM to avoid the precipitation of the complex, reaching a final concentration of 1:4 (DMSO-d6/DMEM). All these mixtures were performed using a thermoshaker. Each sample was monitored by ^195Pt NMR at 0, 24, 48, and 120 h.

[6] = test system: HCT 116 human colon cancer cells; assay: MTT cell viability assay, HCT 116; type: cell-based; details: for IC50: 48 h
Experimental: HIEC6 human healthy intestinal cells and HCT 116 and HT-29 human colon cancer cells were supplied by ATCC. Colon cancer cells were cultured in Dulbecco’s modified Eagle’s medium (DMEM) for HCT 116 and HT-29 supplemented with fetal bovine serum (10%). HIEC6 cells were cultured in Opti-MEM supplemented with fetal bovine serum (4%), HEPES (20 mM), glutamine (10 mM), and epidermal growth factor (10 ng/mL). Cells were maintained at 37 °C in a humidified atmosphere containing 5% CO2. Cells were seeded at 30% confluence in DMEM for HCT 116 and in Opti-MEM for HIEC6; after cell adhesion, HIEC6 cells were cultured in DMEM for 24h before being treated. All cells were treated with the indicated components at concentrations of 0.25–50 μM and incubated for 1–5 days as specified.
The MTT assay relies on a colorimetric reaction based on the capacity of living cells to reduce MTT to formazan and change the color to purple, which is easily measured by colorimetry. This assay estimates the cellular viability after the indicated treatments. Cells were treated with MTT (1:10 in culture medium) and incubated at 37 °C for 3 h for HCT 116 and HT-29 or 6 h for HIEC6. After removal of the medium, the formazan was resuspended in DMSO, transferred to p96 plates, and analyzed by a SpectraFLUOR (Tecan) at 542 nm. In all cases, viability was measured in duplicates of each point in three independent experiments.

## CC(C)N.CC(C)N.CCO[Si](CCCNC(=O)[O][Pt]([Cl])([Cl])[O]C(=O)NCCC[Si](OCC)(OCC)OCC)(OCC)OCC [Pt(IV)-biSi-2, cis-Dichloro(diisopropylamine)-trans-[3-(triethoxysilyl)propylcarbamate]platinum(IV)]
[1]
  Reduction of the Pt(IV) complex by AsA (Pt(IV) signal in 195Pt NMR): no signals were observed in the Pt(IV) region after reaction for 2 h
[2]
  Unresolved DSB / histone H2Ax foci: foci were retained at 48 h
[3]
  Reduction of the Pt(IV) complex by GSH (Pt(IV) signal in 195Pt NMR): practically disappeared after 24 h
[4]; i.p., acute and chronic treatments
  Tumor volume versus control (PBS): significantly reduced tumor volume
[4]; i.p., acute and chronic treatments, Pt concentration one-third that of cisplatin
  Tumor growth compared with cisplatin: reduced tumor growth more than cisplatin
[4]; serum, versus cisplatin treatment
  LDH levels (tumor marker): reduced LDH levels significantly more
[5]
  Stability in DMEM (Pt(IV) signal in 195Pt NMR): suffered a marked decrease after 24 h
[6]; 5 μM, 5 days chronic treatment
  Fold greater cytotoxicity than cisplatin, HCT 116: 8–10 fold
[6]; MTT, 0.5 uM, 2 days
  Cell viability, HCT 116 0.5uM 2 days: 49.4 ± 3.2%
[6]; MTT, 0.5 μM, 2 days
  Reduction of viability (cytotoxicity) of HCT 116 tumor cells: 50%
[6]; MTT, 0.5 uM, 5 days
  Cell viability, HCT 116 0.5uM 5 days: 60.2 ± 14.4%
[6]; MTT, 0.5 μM, 5 days
  Reduction of tumor cell viability (HCT 116): 40%
[6]; MTT, 5 μM, 2 days
  Reduction in viability of cancer cells (HCT 116): 90%
[6]; MTT, 5 uM, 2 days, (final complexes, Figure 3B)
  Cell viability, HCT 116 5uM 2 days: 4.4 ± 0.8%
[6]; MTT, 5 μM, 5 days chronic treatment
  Cells survived, HCT 116: 5%
[6]; MTT, Figure 3C and text, read-out: IC50 (μM), HCT 116
  IC50: 0.94 µM
[6]; MTT, supplementary CSV, read-out: IC50 (uM) HCT 116
  IC50: 0.9 ± 0.6 µM
[6]; MTT, 2 days
  Cell viability, HCT 116 […] 2 days: 59.6 ± 2.9%
[6]; MTT, second (last) column of this head
  Cell viability, HCT 116 […] 2 days: 59.1 ± 0.8%
